According to patent US9713615B2, “Tetrahydroisoquinolin-2-yl-(quinazolin-4-yl)methanone compounds” (Rexahn Pharmaceuticals, Inc., priority 2013, dated 2017):

What was measured:
Caki-1 (kidney) = experiment: SRB growth inhibition assay, Caki-1; format: cell-based, Human; settings: Homo sapiens, CAKI-1, 96 hours incubation, read-out: Inhibition of cell growth (IC50, μM) Caki-1
Source text: (§1) Cancer cells used in this study to determine the effect of tetrahydroisoquinolin-2-yl-(quinazolin-4-yl)methanone compounds were obtained from the following sources: Human OVCAR-3 (ovary), SK-MEL-28 (melanoma), MDA-MB-231 (breast), HeLa (cervix), PC3 (prostate), HepG2 (liver), A549 (lung), Caki-1 (kidney), HCT116 (colon) and PANC-1 (pancreas) from the American Type Culture Collection (ATCC) (Manassas, Va.); U251 (brain) from Riken (Japan); MKN-45 (stomach) from DSMZ (Germany). All cell lines except MDA-MB-231, HCT116, Caki-1 and PANC-1 were grown in RPMI1640 medium (Invitrogen, Carlsbad, Calif.) supplemented with 10% fetal bovine serum (“FBS”), 1 mM sodium pyruvate, 10 mM HEPES and 100 U/ml penicillin and 100 μg/ml streptomycin (“P/S”). MDA-MB-231, HCT116, Caki-1 and PANC-1 cells were maintained in Dulbecco's modified Eagle's medium (“DMEM”, Invitrogen) supplemented with 10% FBS, P/S, 10 mM HEPES and 2 mM L-glutamine. All cells were incubated at 37° C. under humidified 5% CO2.
(§2) The growth inhibition of the tetrahydroisoquinolin-2-yl-(quinazolin-4-yl)methanone compounds against a variety of human tumor cells was evaluated to study the relative importance of particular substituent groups on the compounds. The tetrahydroisoquinolin-2-yl-(quinazolin-4-yl)methanone compounds, prepared as described above, were tested with DMSO as a control.
(§3) The growth inhibition assay of representative tetrahydroisoquinolin-2-yl-(quinazolin-4-yl)methanone derivatives against human tumor cell lines was performed using the Sulforhodamine B (“SRB”) method (Skehan et al., J. National Cancer Institute, 82: 1107-1112 (1990)). Briefly, exponentially growing tumor cells were seeded into a 96-well plate at a density of 2-3×10^3 cells/well and treated with tetrahydroisoquinolin-2-yl-(quinazolin-4-yl)methanone compounds the next day. Triplicate wells were used for each treatment. The cells were incubated with the various compounds for 96 hours at 37° C. in a humidified 5% CO2 atmosphere. After 96-hour incubation, cells were fixed with 10% trichloroacetic acid (“TCA”), incubated for 1 hour at 4° C., and washed 3 times with tap water. Subsequently, cells were stained with 0.4% sulforhodamine B in 1% acetic acid for 30 minutes, washed 4 times with 1% acetic acid, and air-dried again After 5 minutes agitation in 10 mM Tris solution, the absorbance of each well was measured at 530 nm using Benchmark Plus Microplate reader (Bio-Rad Laboratories, Hercules, Calif.).
(§4) To translate the OD530 values into the number of live cells in each well, the OD530 values were compared to those on standard OD530-versus-cell number curves generated for each cell line. The percent survival was calculated using the formula: % Survival=live cell number [test]/live cell number [control]×100
(§5) The IC50 values were calculated by non-linear regression analysis.
(§6) The compounds were screened against at […] including PANC-1, MDA-MB-231, HCT116 and Caki-1, at approximately 1 μM concentration. The inhibition of cell growth (IC50, μM) of some tetrahydroisoquinolin-2-yl-(quinazolin-4-yl)methanone compounds are shown in Table 2.

HCT116 (colon) = experiment: SRB growth inhibition assay, HCT116; format: cell-based, Human; settings: Homo sapiens, HCT-116, 96 hours incubation, read-out: Inhibition of cell growth (IC50, μM) HCT116
Source text: as §1, §2, §3, §4, §5, §6

MDA-MB-231 (breast) = experiment: SRB growth inhibition assay, MDA-MB-231; format: cell-based, Human; settings: Homo sapiens, MDA-MB-231, 96 hours incubation, read-out: Inhibition of cell growth (IC50, μM) MDA-MB-231
Source text: as §1, §2, §3, §4, §5, §6

PANC-1 (pancreas) = experiment: SRB growth inhibition assay, PANC-1; format: cell-based, Human; settings: Homo sapiens, PANC-1, 96 hours incubation, read-out: Inhibition of cell growth (IC50, μM) Panc-1
Source text: as §1, §2, §3, §4, §5, §6

MKN-45 (stomach) = experiment: SRB growth inhibition assay, MKN-45; format: cell-based; settings: Homo sapiens, 96 hours incubation, read-out: Inhibition of cell growth (IC50, μM) MKN-45
Source text: as §1, §2, §3, §4, §5

U251 (brain) = experiment: SRB growth inhibition assay, U251; format: cell-based; settings: Homo sapiens, U-251, 96 hours incubation, read-out: Inhibition of cell growth (IC50, μM) U251
Source text: as §1, §2, §3, §4, §5

OVCAR-3 (ovary) = experiment: SRB growth inhibition assay, OVCAR-3; format: cell-based; settings: Homo sapiens, 96 hours incubation, read-out: Inhibition of cell growth (IC50, μM) Ovcar3
Source text: as §1, §2, §3, §4, §5

HeLa (cervix) = experiment: SRB growth inhibition assay, HeLa; format: cell-based; settings: Homo sapiens, 96 hours incubation, read-out: Inhibition of cell growth (IC50, μM) HeLa
Source text: as §1, §2, §3, §4, §5

HepG2 (liver) = experiment: SRB growth inhibition assay, HepG2; format: cell-based; settings: Homo sapiens, 96 hours incubation, read-out: Inhibition of cell growth (IC50, μM) HepG2
Source text: as §1, §2, §3, §4, §5

SK-MEL-28 (melanoma) = experiment: SRB growth inhibition assay, SK-MEL-28; format: cell-based; settings: Homo sapiens, 96 hours incubation, read-out: Inhibition of cell growth (IC50, μM) SK-MEL-28
Source text: as §1, §2, §3, §4, §5

SMILES: COc1ccc2c(c1O)CCN(C(=O)c1nc(-c3ccc(Cl)cc3)nc3ccccc13)C2 [Compound 27, 2-[[2-(4-chlorophenyl)quinazolin-4-yl]carbonyl]-5-hydroxy-6-methoxy-1,2,3,4-tetrahydroisoquinoline]
- IC50 (Caki-1 (kidney)): 0.46 µM
- IC50 (HCT116 (colon)): 0.5 µM
- IC50 (MDA-MB-231 (breast)): 0.54 µM
- IC50 (PANC-1 (pancreas)): 0.42 µM

SMILES: Cc1ccc2c(c1O)CCN(C(=O)c1nc(-c3ccc(Cl)cc3)nc3ccccc13)C2 [Compound 31, 2-[[2-(4-chlorophenyl)quinazolin-4-yl]carbonyl]-5-hydroxy-6-methyl-1,2,3,4-tetrahydroisoquinoline]
- IC50 (Caki-1 (kidney)): 0.64 µM
- IC50 (HCT116 (colon)): 0.91 µM
- IC50 (MDA-MB-231 (breast)): 0.63 µM
- IC50 (PANC-1 (pancreas)): 0.85 µM

SMILES: COc1cccc(-c2nc(C(=O)N3CCc4c(ccc(OC)c4O)C3)c3ccccc3n2)c1 [Compound 47, 2-[[2-(3-methoxylphenyl)quinazolin-4-yl]carbonyl]-5-hydroxy-6-methoxy-1,2,3,4-tetrahydroisoquinoline]
- IC50 (Caki-1 (kidney)): 0.59 µM
- IC50 (HCT116 (colon)): 0.81 µM
- IC50 (MDA-MB-231 (breast)): 0.49 µM
- IC50 (PANC-1 (pancreas)): 0.5 µM

SMILES: Cc1ccc2c(c1O)CCN(C(=O)c1nc(-c3ccncn3)nc3ccccc13)C2 [Compound 73, 2-[[2-(4-pyrimidinyl)quinazolin-4-yl]carbonyl]-5-hydroxy-6-methyl-1,2,3,4-tetrahydroisoquinoline]
- IC50 (Caki-1 (kidney)): 0.19 µM
- IC50 (HCT116 (colon)): 0.26 µM
- IC50 (MDA-MB-231 (breast)): 0.21 µM
- IC50 (PANC-1 (pancreas)): 0.2 µM

SMILES: Cc1ccc2c(c1O)CCN(C(=O)c1nc(-c3ccc(F)cc3F)nc3ccccc13)C2 [Compound 61, 2-[[2-(2,4-difluorophenyl)quinazolin-4-yl]carbonyl]-5-hydroxy-6-methyl-1,2,3,4-tetrahydroisoquinoline]
- IC50 (Caki-1 (kidney)): 2.47 µM
- IC50 (HCT116 (colon)): 2.76 µM
- IC50 (MDA-MB-231 (breast)): 1.84 µM
- IC50 (PANC-1 (pancreas)): 2.31 µM

SMILES: COc1ccc2c(c1)CCN(C(=O)c1nc(-c3ccc(F)cc3)nc3ccccc13)C2 [Compound 7, 2-[[2-(4-fluorophenyl)quinazolin-4-yl]carbonyl]-6-methoxy-1,2,3,4-tetrahydroisoquinoline]
- IC50 (MKN-45 (stomach)): 0.19 µM
- IC50 (Caki-1 (kidney)): 0.61 µM
- IC50 (HCT116 (colon)): 1.1 µM
- IC50 (U251 (brain)): 0.64 µM
- IC50 (OVCAR-3 (ovary)): 0.16 µM
- IC50 (MDA-MB-231 (breast)): 0.9 µM
- IC50 (HeLa (cervix)): 0.24 µM
- IC50 (HepG2 (liver)): 0.72 µM
- IC50 (SK-MEL-28 (melanoma)): 0.36 µM
- IC50 (PANC-1 (pancreas)): 0.53 µM

SMILES: COc1ccc2c(c1O)CCN(C(=O)c1nc(-c3cscn3)nc3ccccc13)C2 [Compound 79, 2-[[2-(4-thiazolyl)quinazolin-4-yl]carbonyl]-5-hydroxy-6-methoxy-1,2,3,4-tetrahydroisoquinoline]
- IC50 (Caki-1 (kidney)): 0.16 µM
- IC50 (HCT116 (colon)): 0.2 µM
- IC50 (MDA-MB-231 (breast)): 0.17 µM
- IC50 (PANC-1 (pancreas)): 0.17 µM
